Type in all cases: physicochemical
A short description of data set [1]: Resistance to gamma radiation (sterilization). Particulars: sterilization by gamma radiation.
A short description of data set [2]: Photodegradation of solid SkQ1 bromide under natural day/night illumination. The protocol: As a result, SkQ1 was stored in light protective packaging or a dark glass container. The crystalline form of SkQ1 bromide as prepared in Example 2C and was tested by placing 50 mg portions at room temperature in transparent plastic vials, under conditions of natural change of day and night illumination with indirect sunlight.

Data set [3] can be described thus: Stability of crystalline SkQ1 chloride and iodide compared with SkQ1 bromide. Particulars: crystals obtained by the same crystallization methods. An excerpt: Purity and stability parameters of obtained SkQ1 Cl and SkQ I were similar to such parameters of SkQ1 bromide.
Data set [4] can be described thus: Hygroscopicity of the isolated solid. To be noted: non-crystalline solid as isolated. An excerpt: Hygroscopic solids are associated with numerous difficulties when attempting to use them in pharmaceutical compositions, including low stability and difficulty in handling. Crystallization of halide salts of SkQ1 by using a number of solvents, individually or in combination, was attempted.

The nature of data set [5]: Solubility in water and in protic solvents (observations during crystallization work). The protocol: Attempts to reduce the concentration of ethanol and to use isopropanol were undertaken. SkQ1 bromide in an amount of 177 mg was added to an ethanol (1V)-ethyl acetate (5V) mixture. In another experiment, SkQ1 in an amount of 178 mg was added to an isopropanol (1V)-ethyl acetate (5V) mixture. […] To each of the above solutions, 5V ml of MTBE was added, initially oiling out the supersaturated solution. After leaving the solution overnight at room temperature, crystals were formed. This process with varying amounts of ethanol (from 0.274-0.574 V) led to similar results of solid formation after MTBE addition. Similarly, ethyl acetate was increased to 10V, with similar results of fine solid formation only after adding MTBE, but with lower yields. When ethanol solvent amounts were increased ton 1.174 V, crystallization occurred after adding MTBE, but yields were low.

The results in this text go back to US20260217746A1, “CRYSTALLINE FORMS OF ANTIOXIDANT COMPOUND” (Mitotech Ltd, priority 2023, published 2026).

`CC1=C(C)C(=O)C(CCCCCCCCCC[P+](c2ccccc2)(c2ccccc2)c2ccccc2)=CC1=O` [Amorphous SkQ1 bromide, 2,3-dimethyl-1,4-benzoquinone-5-decyl-triphenylphosphonium bromide, reference compound]: the “stability to gamma radiation” value in data set [1] (listed as oil form) was “degraded”. Further, the photosensitivity entry in data set [2] (amorphous form, stored in light protective packaging or dark glass container) is “photosensitive”.
As to `CC1=C(C)C(=O)C(CCCCCCCCCC[P+](c2ccccc2)(c2ccccc2)c2ccccc2)=CC1=O` [SkQ1 Cl], in data set [3], the “stability parameters relative to SkQ1 bromide” value is recorded as “similar”.
Consider `CC1=C(C)C(=O)C(CCCCCCCCCC[P+](c2ccccc2)(c2ccccc2)c2ccccc2)=CC1=O` [crystalline form of SkQ1 bromide, 2,3-dimethyl-1,4-benzoquinone-5-decyl-triphenylphosphonium bromide], for which the “stability to gamma radiation” value in data set [1] (listed as crystalline SkQ1) is given as “resistant to gamma radiation”. The sample photodegradation result in data set [2] (50 mg portions, room temperature, transparent plastic vials, natural day and night illumination with indirect sunlight, analyzed at 6 hours, 4 days, 1 month and 2 months) is “no degradation was found in any of the samples”. Further, in data set [2] (crystalline versus amorphous form), the “resistance to degradation, in particular photodegradation, compared to the previously known amorphous form” value is “more resistant to degradation”.
With `CC1=C(C)C(=O)C(CCCCCCCCCC[P+](c2ccccc2)(c2ccccc2)c2ccccc2)=CC1=O` [SkQ1 bromide, 2,3-dimethyl-1,4-benzoquinone-5-decyl-triphenylphosphonium bromide], the results for the hygroscopicity entry in data set [4] and in data set [4] (listed as SkQ1 bromide salt) were “hygroscopic” and “highly hygroscopic”, respectively. Moreover, the “solubility in protic solvents” value in data set [5] (ethanol (1V)- or isopropanol (1V)-ethyl acetate (5V) mixture, room temperature, 0.5 hours) was “highly soluble”. In addition, the solubility in water result in data set [5] (water) was “sparingly soluble”.
